# Publication PMC8541575, “Optimization and Development of Selective Histone Deacetylase Inhibitor (MPT0B291)-Loaded Albumin Nanoparticles for Anticancer Therapy” (Pharmaceutics, 2021)
# Legend:
# [1] = tested on: healthy Balb/c female mice; assay: Maximum tolerated dose, single i.v. dose; assay type: in vivo
# Description: The single-dose study was conducted using healthy female mice with four animals per group.
# [2] = In vitro drug release by dialysis bag; assay type: physicochemical; settings: 0.25 mg/mL in propylene glycol, pH 7.4 phosphate buffer with 1% Tween 80, 37 °C
# Description: The dialysis bag was subsequently placed into 25 mL of release medium (PBS) containing 1% v/v Tween 80. The temperature was maintained at 37.0 ± 0.5 °C, and the medium was stirred at a speed of 100 rpm. MPT0B291 which had been dissolved in propylene glycol (free MPT0B291; 0.25 mg/mL) was used as a control and was treated in the same manner. During a period of 48 h, the surrounding environment was maintained by replacing 2 mL of the release medium with an equal volume of fresh medium at regular intervals. The extraction solution was solubilized in 500 μL of acetonitrile and assayed by HPLC.
# [3] = In vivo pharmacokinetic study after intravenous administration; settings: male, Sprague-Dawley, rat, plasma, rats, i.v., 5 mg/kg body weight, mean ± SD (n = 4)
# Description: Male Sprague-Dawley rats (250 ± 15 g) were divided into two groups (with four rats per group). […] All collected blood samples were centrifuged at 4000 rpm and 4 °C for 10 min, and supernatant plasma samples were obtained and frozen at -80 °C for further analysis. Quantitative analysis of MPT0B291 in rat plasma by an ultra-precision liquid chromatographic tandem mass spectroscopic (UPLC-MS/MS) method was performed using an Agilent 1290 Infinity II LC System (Agilent, Wilmington, DE, USA) coupled with an Agilent 6470 triple quadrupole LC/MS system (Agilent Technologies, Santa Clara, CA, USA). Optimized chromatographic separation of MPT0B291 was conducted with an ACQUITY UPLC BEH C18 column (1.7 μm, 2.1 × 100 mm; Waters, Milford, MA, USA) at an oven temperature of 40 °C. The mobile phase was 0.1% (v/v) formic acid in water (mobile phase A) and acetonitrile containing 0.1% (v/v) formic acid (mobile phase B) with gradient elution at a flow rate of 0.3 mL/min. All analytical procedures were evaluated with positive electrospray ionization (ESI). The LC gradient was programmed in linear steps as follows: 0~0.5 min, 5% mobile phase B (v/v); 0.5~1 min, 5% mobile phase B to 100% mobile phase B (v/v); 1~2.8 min, 100% mobile phase B; 2.8~3 min, 100% mobile phase B to 5% mobile phase B (v/v); and 3~4 min, 5% mobile phase B (v/v). Quantification was achieved using the multiple reaction monitoring (MRM) mode at m/z 344.1 → 91.0 for MPT0B291. The following PK parameters were determined: the area under the concentration-time curve (AUC), maximum peak concentration (Cmax), time of maximum peak concentration (Tmax), and mean residence time (MRT). These parameters were determined by DAS software vers. 2.0. All data are presented as mean ± standard deviation (SD).
# [4] = tested on: MIA PaCa-2 cells; assay: Cell viability (MTT) assay; assay type: cell-based; settings: Homo sapiens, 24 h of exposure, read-out: 50% inhibitory concentration (IC50)
# Description: Briefly, MIA PaCa-2 cells were seeded (5 × 10^3 cells/well) in 96-well culture plates. After 24 h of incubation in a humidified incubator at 37 °C with 5% CO2, the medium of adherent cells was replaced with serum-free culture medium and incubated with 200 μL of serial dilutions of HSA-NPs (0.01~1000 μg/mL) and MPT0B291-HSAX NPs ([…]). After another 24 h, 100 µL of MTT (500 μg/mL in PBS, pH 7.4) was added and incubated at 37 °C for 2 h. The medium was then removed, and 100 µL of DMSO was added to each well to dissolve the crystals. The optical density (OD) was measured at 540 nm using a microplate reader (Cytation™ 3 Cell Imaging Multi-Mode Reader, BioTek, Winooski, VT, USA). The cell survival rate was calculated as follows:(3) Cell survival rate (%)=Absorbance value of test solution group /Absorbance value of blank solution group ×100%
smiles,measurement,setting,value
O=C(/C=C/c1cccc(S(=O)(=O)n2ccc3cccnc32)c1)NO [MPT0B291],Mortality after single i.v. dose of 150 mg/kg BW,[1]; n = 4,one mouse was found dead after 24 h and another one also died on the following day
same,Maximum tolerated dose (MTD),"[1]; single dose, i.v. route",approximately 75 mg/kg BW
same,Drug released within 1 h,[2],60%
same,Drug released within 8 h,[2],~100%
same,AUC(0-inf),[3],293 ± 39.2 ng·h/mL
same,AUC(0-t),[3]; read-out: AUC0–24h,291 ± 39.7 ng·h/mL
same,clearance,[3]; read-out: CL (clearance),288 ± 36.7 mL/min/kg
same,MRT,[3]; read-out: MRT (mean residence time),1.86 ± 0.66 h
same,Vd,[3]; read-out: Vss (volume of distribution at steady state),32.6 ± 12.3 L/kg
same,half-life,[3]; read-out: t1/2 (elimination half-life) (converted),2.07 ± 0.64 h
same,IC50,[4],4.71 µM
